Assay results published in patent US20100279944A1, “SUPPRESSION AND TREATMENT OF NEUROPATHIC PAIN” (priority 2006, published 2010).
Where a SMILES comes first, the peptide text is derived from it. [ ]: non-standard residue; d: D form.

How the values were obtained:
[1] = Recovery, side effects and body weight of SCI rats after peptide treatment; assay type: in vivo, rat; conditions: 200 μg/kg i.v., six bolus doses after SCI
Procedure: Seventeen individually housed male Wistar rats (Charles River, St. Constant, Quebec, 250-320 g) were used to assess mechanical allodynia and hind-limb locomotion. Males were used in these studies to avoid the confounding variable of hormonal cycles on the assessments of neuropathic pain. All protocols were carried out in accordance with the guidelines set forth by the Canadian Guide to Care and Use of Experimental Animals. All experiments conformed to international guidelines on the ethical use of animals and minimized the number of animals used and their suffering. All rats received pre-operative medication and halothane anesthesia for surgical interventions to accomplish clip compression spinal cord injury (SCI), as described previously (Gris et al., (2004), J. Neurosci., v. 24, pp. 4043-4051; Weaver et al., (2001), J. Neurotrauma, v. 18, pp. 1107-1119). A dorsal laminectomy was performed to expose the 12th thoracic (T12) spinal cord segment. The cord was injured by clip compression for 60 sec without disrupting the dura or adjacent dorsal roots. A modified aneurysm clip (Toronto Western Research Institute, University of Toronto, Toronto, Ontario, Canada) calibrated at 35 g was used at the T12 segment to produce a moderate injury. The rats received postoperative care as described previously (Gris, supra). […]

[2] = Mathison et al., 1997; cited from earlier work

For `N[C@H](Cc1ccccc1)C(=O)N[C@H](CC(=O)O)C(=O)NCC(=O)O` [fdG, D-phenylalanine-D-aspartic acid-Glycine] (H-[dF]-[dD]-Gly-OH), the “side effects of treatment” value [1] was “No overt side effects”.

For “SGP-T: submandibular gland peptide T; amino acid sequence TDIFEGG”, the “lowest dose showing biological effects” value [2] is listed as 1 μg/kg.
